Assay results as given in patent US9719110B2, “Method of increasing production of amorpha-4,11-diene and method of increasing production of natural rubber” (SUMITOMO RUBBER INDUSTRIES, LTD., priority 2014, dated 2017).

What was measured:
35S:ADS A. thaliana = assay: amorpha-4,11-diene production in 35S:ADS A. thaliana seedlings cultured in MS liquid medium with inhibitor (GC-MS); assay type: in vivo, Arabidopsis thaliana
Protocol: The following experiment was performed to confirm that the attachment of the enzyme inhibitor squalestatin (squalene synthase inhibitor) had the effect of increasing production of amorpha-4,11-diene on 35S:ADS A. thaliana, which is an Arabidopsis thaliana into which had been introduced a gene encoding amorphadiene synthase (ADS).
The 35S:ADS A. thaliana is Arabidopsis thaliana in which a gene encoding ADS derived from Artemisia annua is overexpressed. It is properly managed as 433 7-5 line in Cell Technology Laboratory, Division of Advanced Science and Biotechnology, Graduate School of Engineering, Osaka University.
In order to sterilize 35S:ADS A. thaliana seeds, the seeds were immersed in a seed sterilization water (0.25% sodium hypochlorite solution, 1% SDS) for 20 minutes and then washed with sterilized water four times.
The seeds were plated on MS agar medium (Murashige and Skoog medium, including 4.4 g/L vitamins, 10 g/L sucrose, and 10 g/L agar) set to a pH of 5.8.
The plating was followed by vernalization for two or more days at 4° C. Thereafter, the seeds were cultured at 23° C. under long day conditions (16 hours light/8 hours dark) for seven days.
The resulting Arabidopsis thaliana seedlings were transferred to MS liquid media supplemented with squalestatin (SQS inhibitor) at squalestatin concentrations of 0, 1, 3, 5, 10, and 15 μmol/L, followed by further culturing for seven days with shaking at 23° C. under long day conditions (16 hours light/8 hours dark).
Amorpha-4,11-diene was extracted from the Arabidopsis thaliana plants by the following procedure. About 100 mg (wet weight) of Arabidopsis thaliana plants was placed in a mortar, to which was added about 5 mL of n-hexane. After 100 μL of a n-tetradecane solution was added as an internal standard, the mixture was subjected to grinding and extraction. The extract was once recovered, and the residue was combined with another 5 mL of fresh n-hexane, followed by grinding and extraction. The extract from the second extraction was combined with that from the first extraction. This cycle of operation was repeated twice. The resulting extract was passed through an anhydrous sodium sulfate column.
The eluate from the column was concentrated under reduced pressure to about 1 mL using a rotary evaporator, and then dried to a solid with a nitrogen blowing concentrator.
The dried solid was finally combined with 1 mL of n-hexane to prepare a sample for GC-MS analysis.
The GC-MS analysis was performed with a JMS-SUN200 mass spectrometer (JEOL) and a gas chromatograph (6890 series GC system: Agilent Technologies). […]
Instead of squalene synthase (SQS), squalene epoxidase (SQE), which is located one step downstream of SQS, was inhibited, and then the effect of increasing production of amorpha-4,11-diene was evaluated. […]

Taraxacum koksaghyz = assay: natural rubber production in Taraxacum koksaghyz sprayed with inhibitor solution (rubber dry weight); assay type: in vivo
Protocol: The following experiment was performed to confirm that the attachment of the enzyme inhibitor squalestatin (squalene synthase inhibitor) to the rubber-producing plant Taraxacum koksaghyz had the effect of increasing production of natural rubber.
Taraxacum koksaghyz seeds were vernalized for two or more days at 4° C. and then planted in soil.
After planted in soil, the seeds were grown at 25° C. under 12 h light/12 h dark conditions for five months.
Squalestatin was dissolved at a concentration of 10 μmol/L in 0.1% dimethyl sulfoxide (DMSO) to prepare a squalestatin solution. Two of the thus grown Taraxacum koksaghyz plants were each sprayed with 50 mL of the squalestatin solution once a day for four days using a spray.
As a comparative example, another two Taraxacum koksaghyz individuals were sprayed with 50 mL of a 0.1% dimethyl sulfoxide (DMSO) solution without squalestatin once a day for four days using a spray.
On day 5 after initiation of the treatment, latex was recovered from the Taraxacum koksaghyz roots and immersed in ethanol for five hours to solidify natural rubber.
The solidified natural rubber was dried at room temperature for three days. Thereafter, the dry weight was measured, and the results were compared.

Compound | amorpha-4,11-diene amount relative to treatment with the same concentration of squalestatin (35S:ADS A. thaliana; 5 μmol/L) | increase in the production of amorpha-4,11-diene (35S:ADS A. thaliana; terbinafine 1, 3 and 5 μmol/L, same procedure as Example 1) | accumulation of amorpha-4,11-diene (35S:ADS A. thaliana; treatment with 5 μmol/L) | amount of amorpha-4,11-diene inside Arabidopsis thaliana plants (35S:ADS A. thaliana; treatment with 3 μmol/L or more of squalestatin, seven-day shake culture, FIG. 2) | Rubber dry weight (Taraxacum koksaghyz; 10 μmol/L in 0.1% DMSO, 50 mL sprayed once a day for four days, latex from roots on day 5, average of two individuals) [mg] | increase in amount of natural rubber recovered versus plants not treated with squalestatin (Taraxacum koksaghyz; 10 μmol/L, sprayed once a day for four days) [times]
CN(C/C=C/C#CC(C)(C)C)Cc1cccc2ccccc12 [terbinafine] | a tenth or less | very little increase | about 0.004 μg gFW^-1 |  |  | 
C=C(CC[C@]12O[C@H](C(=O)O)[C@@](O)(C(=O)O)[C@](C(=O)O)(O1)[C@H](OC(=O)/C=C/[C@@H](C)C[C@@H](C)CC)[C@H]2O)[C@@H](OC(C)=O)[C@H](C)Cc1ccccc1 [squalestatin] |  |  |  | increase | 4.2 | 2.5
